According to patent US20060051868A1, “Methods for increasing conifer somatic embryo initiation, capture, and multiplication” (priority 2001, published 2006):
Read-outs that look alike come from different tables or passages of the source.

Tests used:
Format in all cases: cell-based
conifer = experiment: Inventors' observation of initiation frequency in conifer with gibberellins
Loblolly pine initiates = experiment: Percentage of Loblolly pine maintenance cultures with mass greater than 200 mg at eight weeks; conditions: control 33.7
From the text: “Initiates” will be used to refer to recently initiated embryogenic tissues still on the initiation media. In this experiment, initiates were transferred to a maintenance and multiplication media directly from the initiation media. Five treatments, consisting of various media or culture conditions were imposed on the these cultures. Treatment media were based on media #1191. (See Table 21.) Initiates derived from eight different cone collections of Loblolly pine were transferred to vials containing 5 ml solid media. Seventy five replications were prepared for each treatment.
The transferred initiates were grown in the various treatments for four weeks, and thereafter transferred to vials containing fresh media (of the same composition utilized during the previous four weeks). At the end of a second four-week period, cultures were carefully removed from the vials and weighed. The percentage of cultures that had attained a mass of 200 mg or more was calculated for each treatment.

[1] = system: Loblolly pine embryogenic cultures; experiment: Growth of Loblolly pine embryogenic cultures from single somatic embryos (tissue diameter, area); conditions: base Media 1191, ABA 1.3 mg/l, standard atmosphere, five weeks
Method: Three previously initiated Loblolly pine embryogenic cultures, each representing a different genotype, were grown in liquid media #1133, used as starting material for embryogenic cultures on various treatment media. Using a dissecting scope, individual stage 2 somatic embryos were extracted and placed on treatment media in the center of individual wells on a well plate. Forty embryos were prepared per treatment media, per genotype. Well plates were wrapped in Parafilm® and cultured under standard conditions at room temperature in the dark for four weeks. Embryogenic cultures derived from the single isolated embryos proliferated and spread over the surface of the culture medium. Spreading cultures were roughly circular in shape, radiating from the central embryo. At the end of four weeks, the growth of each culture was measured by measuring colony diameter using a dissecting scope ocular micrometer. Five treatment media were compared to control media #1043 (Table 21). Three media consisted of #1043 supplemented with paclobutrazol at concentrations of 0.33, 1.0 and 3.0 ppm. A B-vitamin treatment contained biotin at 0.05 ppm and folic acid at 0.5 ppm. […] The pH of media containing four different concentrations of MES was compared to that of a non-buffered control media during eight weeks of embryogenic culture growth. Maintenance cultures were established on treatment media using single isolated somatic embryos. Maintenance cultures were prepared and cultured essentially as described in Example 5. The control media was #1043. (See Table 21). The treatment media consisted of #1043 supplemented with 250, 500, 1000 and 1500 mg/l MES. Media pH was adjusted to 5.7 within all treatments prior to autoclaving, pouring and solidification. Immediately after pouring the media, and thereafter at two week intervals, media pH was measured up to the eighth week of culture growth. At each sampling time, four cultures from each media-genotype treatment were destructively sampled to measure the pH of the media directly underlying the growing embryogenic tissue. This experiment measured the effects of ABA, vitamins, culturing in a closed container, and culturing at increased atmospheric pressure on the growth of embryogenic cultures. Maintenance cultures were prepared on well plates using single somatic embryos, essentially as described in Example 5.

[2] = system: Loblolly pine megagametophytes; experiment: Initiation frequency of embryogenic cultures from Loblolly pine megagametophyte explants
Method: Explants were megagametophytes isolated from Loblolly pine summer cones when embryos were at approximately stage 2-4. Seeds were. collected from four individual trees of diverse genotypes. Extracted seeds were soaked in running water for 10 minutes, agitated in 10% liquinox supplemented with 1.1 ml/l of Tween 20 for 10 minutes, and rinsed with water for 30 minutes. Seeds were sterilized in a laminar flow hood by agitating in 20% hydrogen peroxide for 10 minutes and rinsing with sterile deionized water. The seed coat, integuments, and nucellus were removed to isolate the megagametophytes. Culturing was performed in 24-well multi-well culture plates with each well having an approximate volume of 3.0 ml. Two ml of media was poured into each well.
Each replication consisted of eight adjacent wells on a multi-well plate, with one megagametophyte per well, providing three replications per multi-well plate. Twelve replications (for a total of 96 explants) were performed per treatment for each cone collection. The well plates were wrapped in Parafilm®, elastic wrap to minimize evaporation and incubated at 22-24° C. under dark conditions for nine weeks. Initiation frequency was scored for each dish by counting the number of explants which had successfully initiated embryogenic cultures.
The media treatments consisted of: (1) a control media #1043 (see Table 21); (2) media #1218, comprising media #1043 supplemented with 250 mg/l MES buffer; (3) media #1043 supplemented with 0.5 ppm folic acid and 0.05 ppm biotin; and (4) media #1218 supplemented with 0.5 ppm folic acid and 0.05 ppm biotin.
A representative procedure is shown for Loblolly pine. Experimental procedure follow similarly for other conifer but differ slightly in the composition of media used. […] Here, however, each treatment-genotype test consisted of ten replications of ten explants.
The cultures were covered and incubated in the dark at 24-26° C. for nine weeks.
Explants from four Loblolly pine cone collections were prepared and cultured as described in Example 2. The media treatments consisted of control media, #1218, which is media #1043 supplemented. with 250 mg/l MES, and four treatment media, which consist of media #1218 supplemented with 0.33, 1.0, 2.0, and 3.0 ppm paclobutrazol, respectively.
Four cone collections with embryos at stages 2-4 were used. Eighty explants from each cone collection on each media were tested. Seeds were removed from cones and soaked in running water for 10 min. Seeds were then agitated in 10% liquinox containing 1.1 ml/l Tween 20 for 10 min., and then rinsed with running tap water for 30 min. After transferring to a sterile hood, seeds were agitated in 20% H2O2 for 10 min., rinsed with sterile nanopure® H2O five times for 5 to 10 min. intervals, and then placed into a sterile petri dish for dissection. Seeds were dissected by splitting the seed coat, removing the integuments and nucellus. The megagametophyte was placed onto the appropriate medium. Each multi-well test plate contained 2 ml of solid media. Plates were incubated in the dark for 8 weeks and then scored.
The control media, media #1253, is described in detail in Table 16. All test media, #1275, #1421, #1422, and #1423 were comprised of the control media with the addition of a gibberellin inhibitor.

[3] = base media #1253, 1.0 ppm paclobutrazol, 0.1062 ppm flurprimidol, 1.58 ppm chlormequat-Cl, 0.16 ppm succinic acid-dh, 8 weeks, dark, control 29.5
[4] = base media #1253, 1.0 ppm paclobutrazol, 0.1062 ppm flurprimidol, 1.58 ppm chlormequat-Cl, 0.16 ppm succinic acid-dh, 8 weeks, dark, control 58.6

Structure (SMILES): C=C1C[C@]23C[C@@]1(O)CC[C@H]2[C@@]12C=C[C@H](O)[C@@](C)(C(=O)O1)[C@H]2[C@@H]3C(=O)O [gibberellic acid]
- effect on initiation frequency in conifer (conifer): inhibitory effect

Structure (SMILES): CC1=CC(=O)CC(C)(C)[C@@]1(O)/C=C/C(C)=C\C(=O)O [ABA, abscisic acid]
- % mass >200 mg (Loblolly pine initiates; Media 1191 + 1.3 mg/l ABA, cultured at 1.5 atm): 61.2%
- % mass >200 mg (Loblolly pine initiates; base Media 1191, ABA 1.3 mg/l, brassinolide 0.1 μM + paclobutrazol 1.0 ppm, MES 250 mg/l, biotin 0.05 ppm, folic acid 0.5 ppm): 48.6%
- Tissue diameter (mm) ([1]; control 4.11): 4.61 mm
- Tissue area (mm^2) ([1]; control 13.3): 16.7 mm^2

Structure (SMILES): CN(C)NC(=O)CCC(=O)O [Succinic Acid-DH, succinic acid-DH]
- Initiation Frequency (%) [2, 3]: 38.0%
- Extrusion (%) [2, 4]: 63.3%

Structure (SMILES): CC(C)C(O)(c1ccc(OC(F)(F)F)cc1)c1cncnc1 (centres unmarked) [Flurprimidol, flurprimidol]
- Extrusion (%) [2]: 59.9%
- Initiation Frequency (%) [2]: 36.3%

Structure (SMILES): C[N+](C)(C)CCCl [Chlormequat-Cl, chlormequat-Cl]
- Initiation Frequency (%) [2, 3]: 36.8%
- Extrusion (%) [2, 4]: 61.6%
